The target of one test is T1, rP2X7 (Rattus norvegicus, UniProt Q64663).
T1 sequence (Q64663 1-595): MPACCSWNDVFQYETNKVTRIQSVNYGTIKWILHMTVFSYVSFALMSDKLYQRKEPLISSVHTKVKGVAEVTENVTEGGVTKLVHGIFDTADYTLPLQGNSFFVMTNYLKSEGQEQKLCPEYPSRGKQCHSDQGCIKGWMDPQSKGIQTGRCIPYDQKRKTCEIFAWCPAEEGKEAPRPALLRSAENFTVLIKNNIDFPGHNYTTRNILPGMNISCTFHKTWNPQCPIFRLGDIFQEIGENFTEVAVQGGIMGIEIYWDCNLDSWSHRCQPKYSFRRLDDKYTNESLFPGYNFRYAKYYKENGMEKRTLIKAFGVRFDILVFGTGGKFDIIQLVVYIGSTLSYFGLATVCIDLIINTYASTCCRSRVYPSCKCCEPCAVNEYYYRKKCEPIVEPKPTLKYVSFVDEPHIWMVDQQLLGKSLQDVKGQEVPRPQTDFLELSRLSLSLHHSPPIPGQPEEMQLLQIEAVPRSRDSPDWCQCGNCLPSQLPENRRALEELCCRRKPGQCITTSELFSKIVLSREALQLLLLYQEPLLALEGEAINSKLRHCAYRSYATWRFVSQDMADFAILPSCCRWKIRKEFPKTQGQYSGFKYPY
Nature of the test: Bio-layer interferometry (BLI), biotinylated rP2X7 on streptavidin biosensors, 2:1 Langmuir fit. It is filed as binding. The settings on record: for kon: pH 7.4, 2:1 Langmuir model, 600-s association. The method, then: Using a HiTrap desalting column (Cytiva), 1 ml of diluted purified rP2X7 was desalted into PBS buffer (pH 7.4). Protein-containing fractions were combined and concentrated before adjusting the pH to 8.0 with NaHCO3. NHS-PEG12-Biotin (Thermo Fisher Scientific) was added and incubated at 23°C for 60 min while shaking. PBS was used to dilute the biotinylated sample before four cycles of dilution and concentration to ensure the removal of free NHS-PEG12-Biotin via a 100-kDa concentrator (Millipore Sigma). After the final cycle, the absorbance at 280 nm of the concentrated sample was taken to quantify the amount of biotinylated rP2X7.
A ForteBio Octet RED384 instrument with ForteBio Data Acquisition software 11.0 was used to carry out BLI experiments. The assays were performed at 30°C using 384-well tilted-bottom plates (Sartorius) while orbital shaking at 1000 RPM. Running buffer consisting of filtered (0.22 μm) PBS (pH 7.4) with 0.5 mM DDM (Anatrace). Streptavidin (SA) biosensor tips (Sartorius) were pre-equilibrated in running buffer for 20 min and loaded with 50 μg ml^−1 of biotinylated rP2X7 ligand or biocytin (Sigma-Aldrich) control for 1800s. Blocking of the loaded SA sensors using 100 μg ml^−1 of biocytin was then initiated for 150 s before washing with a running buffer for 60 s. A baseline of loaded sensors was taken in the running buffer for 120 s before dipping them into wells containing ligand dilutions (0.37 to 10 μM for methyl blue) for 600 s, and then returning the sensors to the running buffer for a 600-s disassociation step. Rate constants for association and disassociation were determined using ForteBio Data Analysis HT 11.0 evaluation software. The raw data were double reference subtracted for maximal signal between the large ligand and small analyte. Biocytin controls were the first subtraction across analyte concentrations, and the zero-analyte concentration was the second. The association rate constant (ka) and the dissociation rate constant (kd) were calculated for each interaction pair using an average of three independent assays containing at least four different concentrations that were globally fit to a 2:1 Langmuir binding model. Equilibrium dissociation constants (KD) were calculated as the ratio of kd to ka. The KD1, KD2, ka1, ka2, kd1, and kd2 values are reported as the average ± the SD of three replicate datasets for each analyte, with each dataset using at least four independent traces. The analyzed data were exported and plotted in GraphPad Prism 9.0.

A further test addresses T2, hP2X7 (Homo sapiens, UniProt Q99572).
T2 sequence (Q99572 1-595): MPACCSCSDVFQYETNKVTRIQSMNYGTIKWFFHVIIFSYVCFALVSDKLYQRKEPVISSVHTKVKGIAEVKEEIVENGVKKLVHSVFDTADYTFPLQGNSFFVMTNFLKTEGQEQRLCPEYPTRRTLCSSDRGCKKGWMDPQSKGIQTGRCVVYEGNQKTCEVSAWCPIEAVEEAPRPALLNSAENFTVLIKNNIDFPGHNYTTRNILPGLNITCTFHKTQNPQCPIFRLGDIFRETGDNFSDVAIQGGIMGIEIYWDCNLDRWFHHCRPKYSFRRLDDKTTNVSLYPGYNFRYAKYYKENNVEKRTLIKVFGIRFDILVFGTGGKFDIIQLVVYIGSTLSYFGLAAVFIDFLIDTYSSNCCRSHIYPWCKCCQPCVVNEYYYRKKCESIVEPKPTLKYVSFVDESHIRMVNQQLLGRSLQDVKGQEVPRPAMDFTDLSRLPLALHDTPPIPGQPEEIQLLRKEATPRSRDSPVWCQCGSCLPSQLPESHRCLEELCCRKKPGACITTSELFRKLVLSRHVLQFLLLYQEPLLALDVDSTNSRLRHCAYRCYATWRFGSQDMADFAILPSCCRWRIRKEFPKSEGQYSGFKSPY
Nature of the test: TEVC inhibition dose-response (IC50), hP2X7 in Xenopus laevis oocytes. Type of test: cell-based. Set-up: hP2X4-WT, and hP2X7-WT constructs used for electrophysiology are similarly unmodified full-length, wild-type receptor constructs; expressed in transfected cells; host or cells: Xenopus laevis oocytes injected with mRNA made from pcDNA3.1x. The following applies: 100 μM ATP, mean ± SD, triplicate. From the text:
To evaluate the inhibitory response of an antagonist for a dilution series, an initial excitatory signal was evoked at a subtype-specific concentration of ATP. Next, the antagonist was applied at a test concentration for 60 s and then coapplied at the same test concentration of the antagonist with the identical subtype-specific concentration of ATP. The antagonized signal was then normalized against the preceding excitatory signal evoked by ATP for each individual oocyte tested. The pre- and post-antagonist signals were evoked by 10 μM ATP for hP2X1, 10 μM ATP for hP2X2, 1 μM ATP for hP2X3, 50 μM ATP for hP2X4, and 100 μM ATP for P2X7. For the K297V mutation in rP2X7, pre- and post-antagonist signals were evoked by 300 μM ATP. Each dataset was then fit to a nonlinear regression named “[inhibitor] vs. response – Variable slope (four parameters)” in GraphPad Prism 9 to produce a sigmoidal curve and afford an IC50 value. Each singular condition was used to generate an average which is reported plus or minus its SD between three discrete trials.

The mark [1] stands for this setting: 2:1 Langmuir model, 600-s dissociation.

The source of these data is paper PMC11451537, “P2X7 receptors exhibit at least three modes of allosteric antagonism” (Science Advances, 2024).

The structures appear in SMILES notation. Where two headings read alike, the source gives them in different places.

Consider `O=S(=O)(O)c1ccc(N=C2C=CC(=C(c3ccc(Nc4ccc(S(=O)(=O)O)cc4)cc3)c3ccc(Nc4ccc(S(=O)(=O)O)cc4)cc3)C=C2)cc1` [methyl blue], for which the “share of signal of the high-affinity component (KD1)” value on rP2X7 (2:1 Langmuir model) is given as 67 ± 8%. Moreover, the “share of signal of the low-affinity component (KD2)” value at rP2X7 (2:1 Langmuir model) amounted to 33 ± 8%. Also, the Kd at rP2X7 (2:1 Langmuir model, 30°C, PBS pH 7.4 with 0.5 mM DDM, ratio of kd to ka, read-out: KD1 (high-affinity binding component)) stood at 260 ± 130 nM; on rP2X7 (read-out: KD2 (low-affinity binding component), 2:1 Langmuir model, 30°C, PBS pH 7.4 with 0.5 mM DDM, ratio of kd to ka), 1500 ± 200 nM. Besides, the “rate constant for dissociation kd1” value on rP2X7 (setting [1]) is 1.1 ± 0.5 × 10^−4 s^−1. The “rate constant for dissociation kd2” value on rP2X7 (setting [1]) is on record as 1.3 ± 0.1 × 10^−2 s^−1. Also, the kon at rP2X7 (read-out: rate constant for association ka1) is 450 ± 2000 M⁻¹ s⁻¹; on rP2X7 (read-out: rate constant for association ka2) it was 9300 ± 2.3e+06 M⁻¹ s⁻¹. In addition, at hP2X7, the midpoint of inhibition, the IC50, lay at 4000 ± 2000 nM.
